Source: patent US7534576B2, “Method and a device for the evaluation of biopolymer fitness” (Olympus Corporation, priority 1993, dated 2009)
{Bodipy-C6} = Bodipy fluorophore attached via a 5'-C6 linker

How the values were obtained:
[1] = target: T1, EGF receptor (Rattus norvegicus, UniProt G3V6K6); assay: FCS of tetramethylrhodamine-labeled EGF associating with cell-bound EGF receptor at the outer cell membrane; type: binding
T1 construct: endogenous in cells; host or cells: NBD2 rat bladder cells (tumor-derived)
Excerpt: (§1) FIGS. 26 to 28 show the use of the FCS method according to the invention • (i) for the determination of the behavior of a fluorescence labeled ligand with respect to association with a receptor of the outer cell membrane, • (ii) for distinguishing between bound and free ligand, and/or • (iii) for measuring ligand mobility in the case of a passage into the cytosol.
The cells are surface-fixed on Petri dishes in PBS buffer (phosphate buffered saline). […] For excitation, laser light of 500 nm wavelength of an argon laser (0.5 mW) had been chosen. […] Its concentration was 6 nM.

[2] = system: NBD2 rat bladder cells; assay: FCS of internalized EGF mobility with the measuring volume in the cytosol; type: cell-based; details: FIG. 27
Excerpt: as §1
The cells are surface-fixed on Petri dishes in PBS buffer (phosphate buffered saline). They had been grown beforehand in standard medium until a confluent monolayer had been reached. The medium contained EGF labeled with tetramethylrhodamine. For excitation, laser light of 500 nm wavelength of an argon laser (0.5 mW) had been chosen. […] Its concentration was 6 nM.

[3] = system: viral single-strand DNA of bacteriophage M13 (M13mp18 (+) DNA); assay: FCS of association of Bodipy-labeled primer with M13 single-strand DNA in solution; type: binding; details: 40° C.
Method: The oligonucleotide is labeled with Bodipy (Molecular Probes) at the 5′-C6 position. The course of the association reaction with time was measured according to the invention in solution at 40° C. The solution contained 50 nM oligonucleotide, 50 nM of M13mp18 (+) DNA in […] tris buffer, pH 7.5, and 0.18 M sodium chloride. […] Autocorrelation was determined after 0, 0.5, 1, 2, 4, 8, 16, 32, 64, 128, 192, and 256 minutes. The diffusion time of the free primer is 0.17 ms, and 2.9 ms when complex-bound. […] A reassocation rate of 0.07 min^−1 results.

Substance | EGF receptors per measuring volume still retaining the ligand bound with high affinity ([1]; after 30 minutes of washing, FIG. 26c) | τDfree of free EGF factor (printed as rotational diffusion coefficient) ([1]; free EGF, 6 nM, PBS, FIG. 26a) [ms] | diffusion time τDcomplex of receptor bound complex ([1]; receptor bound in cell membrane, FIG. 26b) [ms] | internalized EGF with the same mobility as the free factor ([2]; cytosol) [%] | internalized EGF hindered in mobility ([2]; measuring volume within the cytosol) [%] | reassocation rate ([3]; 50 nM oligonucleotide, 50 nM M13mp18 (+) DNA, FIG. 29) [min⁻¹] | diffusion time of the free primer ([3]; 10 nM tris buffer pH 7.5, 0.18 M sodium chloride) [ms] | diffusion time of primer when complex-bound ([3]; bound to M13 DNA) [ms]
human epidermal growth factor (EGF) | about 0.5 | 0.145 | 14.54 | 62 | 38 |  |  | 
5′-TGACCGGCAGCAAAATGT-3′ (DNA, 5' {Bodipy-C6}, backbone not given here) [M13/pUC (−21) primer, DNA oligonucleotide primer complementary to bacteriophage M13 single-strand DNA] |  |  |  |  |  | 0.07 | 0.17 | 2.9
